Earlier results in patent US7419995B2, “N-substituted benzimidazoyl c-Kit inhibitors and combinatorial benzimidazole library” (OSI Pharmaceuticals, Inc., priority 2004, dated 2008).
Counter-ions that a name gives are not always drawn.

Tested on: MO7e human leukemia cells

SMILES: Cc1ccc(NC(=O)c2ccc(CN3CCN(C)CC3)cc2)cc1Nc1nccc(-c2cccnc2)n1 [Gleevec, imatinib mesylate]
- GM-CSF stimulated growth of MO7e cells (GM-CSF stimulated): not affected
- Kit ligand-stimulated growth of MO7e cells (Kit ligand-stimulated): inhibited
- apoptosis of MO7e cells (Kit ligand-stimulated conditions): induces apoptosis
